Test results: PMC10541190 (The Journal of Clinical Investigation, 2023)
Where “and” joins values, the source holds several entries; their conditions need not be identical. Equal values may be shown once. Read-outs that look alike come from different tables or passages of the source.

How the values were obtained:
VEEV (TC-83) = type: cell-based
in vitro [1] = conditions: human, Huh7 cell viability (%)
[2] = test system: SARS-CoV-2 (USA-WA1/2020); assay: microbe, parasite or virus in culture; type: cell-based; conditions: for EC50: Severe acute respiratory syndrome coronavirus 2, Vero, 24 h, read-out: SARS-CoV-2 EC50
DENV2 = type: cell-based
in vitro [3] = conditions: African green monkey; for viability at 0.625 µM / viability at 1.25 µM / viability at 5 µM / viability at 20 µM: Cell viability (%)
[4] = test system: SARS-CoV-2 (Belgium-GHB-03021); type: cell-based
in vitro [5] = conditions: human, U-87 MG cell viability (%)

CNc1ccc2oc(C[C@H]3O[C@@]4(CC[C@H]3C)O[C@H]([C@H](C)C(=O)c3ccc[nH]3)[C@H](C)C[C@H]4C)nc2c1C(=O)O [Calcimycin]
replication of TC-83 (VEEV (TC-83)): dose-dependently inhibited replication
viability at 0.37 µM (in vitro [1]): 98%
viability at 3.33 µM (in vitro [1]): 50.5%
viability at 10 µM (in vitro [1]): 23.5%
viability at […] (in vitro [1]): 77.7% and 102%
EC50 [2]: 600 nM
replication of DENV2 (DENV2): dose-dependently inhibited replication
CC50 (in vitro [3]): > 20000 nM

CC[C@@]1([C@@H]2O[C@@H]([C@H]3O[C@@](O)(CO)[C@H](C)C[C@@H]3C)C[C@@H]2C)CC[C@H]([C@]2(C)CC[C@]3(C[C@H](O)[C@@H](C)[C@@H]([C@@H](C)[C@@H](OC)[C@H](C)C(=O)O)O3)O2)O1 [Monensin]
replication of TC-83 (VEEV (TC-83)): dose-dependently inhibited replication
viability at 0.37 µM (in vitro [1]): 70.5%
viability at 3.33 µM (in vitro [1]): 32.2%
viability at 10 µM (in vitro [1]): 22.1%
viability at […] (in vitro [1]): 47.9% and 83.7%
EC50 [2]: 1200 nM
replication of DENV2 (DENV2): dose-dependently inhibited replication
CC50 (in vitro [3]): > 20000 nM

CC[C@@H](C(=O)[C@@H](C)[C@@H](O)[C@H](C)[C@@H]1O[C@@H]([C@@H](CC)C(=O)O)CC[C@@H]1C)[C@H]1O[C@]2(C=C[C@@H](O)[C@]3(CC[C@@](C)([C@H]4CC[C@](O)(CC)[C@H](C)O4)O3)O2)[C@H](C)C[C@@H]1C [salinomycin]
Fluorescence (%area) [4]: greater than 15

[N-]=[N+]=CC(=O)OC[C@H](N)C(=O)O [Azaserine]
replication of TC-83 (VEEV (TC-83)): dose-dependently inhibited replication
viability at 0.37 µM (in vitro [1]): 114%
viability at 3.33 µM (in vitro [1]): 69.5%
viability at 10 µM (in vitro [1]): 60.6%
viability at […] (in vitro [1]): 107%
EC50 [2]: 700 nM
replication of DENV2 (DENV2): dose-dependently inhibited replication
CC50 (in vitro [3]): > 20000 nM

N#C[C@@]1(c2ccc3c(N)ncnn23)O[C@H](CO)[C@@H](O)[C@H]1O [GS-441524]
rescue of Vero-eGFP cells from SARS-CoV-2-induced lethality, dose response [4]: dose-dependent anti-SARS-CoV-2 activity

CNc1ccc2oc(C[C@H]3O[C@@]4(CC[C@H]3C)O[C@H]([C@H](C)C(=O)c3ccc[nH]3)[C@H](C)C[C@H]4C)nc2c1C(=O)O [Calci-mycin]
viability at 0.37 µM (in vitro [5]): 103%
viability at 3.33 µM (in vitro [5]): 66.8%
viability at 10 µM (in vitro [5]): 58.2%
viability at […] (in vitro [5]): 82.3% and 103%
Cell viability (%) (Vero cells; 0.625 μM): 91.36% and 94.20%
Cell viability (%) (Vero cells; 1.25 μM): 98.44% and 96.45%
Cell viability (%) (Vero cells; 5 μM): 93.68% and 94.54%
Cell viability (%) (Vero cells; 20 μM): 81.29%
SARS-CoV-2 infection (%) ([2]; 0.625 μM): 17.53% and 16.18% and 16.52%
SARS-CoV-2 infection (%) ([2]; 1.25 μM): 0.00337%
SARS-CoV-2 infection (%) ([2]; 5 μM): 0.00337%
SARS-CoV-2 infection (%) ([2]; 20 μM): 0.00337%
viability at 0.625 µM (in vitro [3]): 89.2%
viability at 1.25 µM (in vitro [3]): 98.6%
viability at 5 µM (in vitro [3]): 93.5%
viability at 20 µM (in vitro [3]): 86.9%

CC(C)(C)c1cc(/C=C(\C#N)C(N)=S)cc(C(C)(C)C)c1O [Tyrphos-tin AG 879]
viability at 0.25 µM (in vitro [5]): 96.7%
viability at 0.74 µM (in vitro [5]): 85%
viability at 2.22 µM (in vitro [5]): 85.2%
viability at 6.67 µM (in vitro [5]): 78.3%
viability at 20 µM (in vitro [5]): 70.1%
Cell viability (%) (Vero cells; 0.625 μM): 83.52% and 84.00%
Cell viability (%) (Vero cells; 1.25 μM): 88.30% and 88.47%
Cell viability (%) (Vero cells; 5 μM): 78.46% and 79.21%
Cell viability (%) (Vero cells; 20 μM): 71.26% and 69.85%
SARS-CoV-2 infection (%) ([2]; 0.625 μM): 47.19% and 30.34% and 33.71%
SARS-CoV-2 infection (%) ([2]; 1.25 μM): 7.75% and 5.73% and 5.06%
SARS-CoV-2 infection (%) ([2]; 5 μM): 0.40% and 0.44% and 0.27%
SARS-CoV-2 infection (%) ([2]; 20 μM): 0.00337%
viability at 0.625 µM (in vitro [3]): 85.5%
viability at 1.25 µM (in vitro [3]): 87.2%
viability at 5 µM (in vitro [3]): 78.7%
viability at 20 µM (in vitro [3]): 71%

CCC(CC)COC(=O)[C@H](C)N[P@](=O)(OC[C@H]1O[C@@](C#N)(c2ccc3c(N)ncnn23)[C@H](O)[C@@H]1O)Oc1ccccc1 [Remdesivir]
rescue of Vero-eGFP cells from SARS-CoV-2-induced lethality, dose response [4]: dose-dependent anti-SARS-CoV-2 activity

COc1ccc2cc1Oc1ccc(cc1)C[C@H]1c3cc(c(OC)cc3CCN1C)Oc1c(OC)c(OC)cc3c1[C@H](C2)N(C)CC3 [Tetran-drine]
viability at 0.37 µM (in vitro [5]): 101%
viability at 3.33 µM (in vitro [5]): 101%
viability at 10 µM (in vitro [5]): 98.9%
viability at […] (in vitro [5]): 105% and 97.8%
Cell viability (%) (Vero cells; 0.625 μM): 99.78%
Cell viability (%) (Vero cells; 1.25 μM): 105.40% and 105.65%
Cell viability (%) (Vero cells; 5 μM): 86.02% and 86.44%
Cell viability (%) (Vero cells; 20 μM): 48.98% and 79.18% and 56.10%
SARS-CoV-2 infection (%) ([2]; 0.625 μM): 107.87% and 117.98% and 101.12%
SARS-CoV-2 infection (%) ([2]; 1.25 μM): 53.93% and 104.49% and 87.64%
SARS-CoV-2 infection (%) ([2]; 5 μM): 0.61% and 0.84% and 0.88%
SARS-CoV-2 infection (%) ([2]; 20 μM): 0.00337%
viability at 0.625 µM (in vitro [3]): 94.4%
viability at 1.25 µM (in vitro [3]): 101%
viability at 5 µM (in vitro [3]): 83.6%
